Test results taken from patent publication US8377884B2, “Variants of C-type natriuretic peptides” (Biomarin Pharmaceutical Inc., priority 2007, dated 2013).
Bridge positions count the residues as written; N and C are the ends. Peptide text beside a SMILES is read from it. * marks the point of attachment. MeO(CH2CH2O)23CH2CH2CO = COCCOCCOCCOCCOCCOCCOCCOCCOCCOCCOCCOCCOCCOCCOCCOCCOCCOCCOCCOCCOCCOCCOCCOCCC(=O)*; CH3O(CH2CH2O)11CH2CH2CO = COCCOCCOCCOCCOCCOCCOCCOCCOCCOCCOCCOCCC(=O)*

Key:
[1] = biological target: neutral endopeptidase (NEP) (Homo sapiens, UniProt P08473); test: in vitro; conditions: human, pH 7
Chain of neutral endopeptidase (NEP) (P08473 whole entry): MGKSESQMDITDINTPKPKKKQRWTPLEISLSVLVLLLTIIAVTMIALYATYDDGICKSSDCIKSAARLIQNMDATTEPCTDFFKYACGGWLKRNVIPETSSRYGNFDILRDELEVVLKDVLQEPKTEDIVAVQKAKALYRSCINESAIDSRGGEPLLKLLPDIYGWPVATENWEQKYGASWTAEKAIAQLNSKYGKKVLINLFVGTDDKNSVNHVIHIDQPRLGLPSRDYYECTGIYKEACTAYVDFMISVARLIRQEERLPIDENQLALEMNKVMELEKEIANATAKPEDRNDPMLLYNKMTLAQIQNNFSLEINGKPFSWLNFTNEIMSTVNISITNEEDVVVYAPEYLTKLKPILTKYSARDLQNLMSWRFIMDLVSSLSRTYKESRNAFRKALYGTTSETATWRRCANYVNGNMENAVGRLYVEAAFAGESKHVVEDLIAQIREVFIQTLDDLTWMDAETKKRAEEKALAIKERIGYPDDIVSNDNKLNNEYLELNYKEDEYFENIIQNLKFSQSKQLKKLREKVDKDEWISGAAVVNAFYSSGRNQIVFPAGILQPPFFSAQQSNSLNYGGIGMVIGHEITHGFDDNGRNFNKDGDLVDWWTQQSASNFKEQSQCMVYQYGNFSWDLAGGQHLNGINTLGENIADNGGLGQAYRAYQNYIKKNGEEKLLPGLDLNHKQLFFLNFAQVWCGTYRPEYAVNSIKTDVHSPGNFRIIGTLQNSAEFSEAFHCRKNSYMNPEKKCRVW
How it was run: (§1)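 Recombinant human NEP (1 ug/mL final) incubated with 100 uM CNP variant in 0.1 M Tris, pH 7, at 37° C for various times, then quenched with EDTA (10 mM final) and heat. Samples reduced and analysed by HPLC and mass spectrometry. Half-life derived from loss of intact variant over time.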

NPR-B = biological target: T1, NPR-B (Mus musculus, UniProt Q6VVW5); test: Stimulation of cGMP production in NIH3T3 cells; format: cell-based, Murine; conditions: NIH3T3 cells; for cGMP response relative to 1 uM CNP22 (%) at 0.01 µM: 10 nM natriuretic peptide, read-out: cGMP Response rel. to 1 uM CNP22, 10 nM; for cGMP response relative to 1 uM CNP22 (%) at 0.01 µM / cGMP response relative to 1 uM CNP22 (%) at 1 µM: normalized to cell number and cGMP production with 1 uM wtCNP22; for cGMP response relative to 1 uM CNP22 (%) at 1 µM: 1 uM natriuretic peptide, read-out: cGMP Response rel. to 1 uM CNP22, 1 uM
T1 construct: Murine NIH3T3 cells express endogenously the CNP signaling receptor, NPR-B; endogenous in cells; host or cells: NIH3T3 (murine fibroblasts)
T1 sequence (Q6VVW5 17-1047): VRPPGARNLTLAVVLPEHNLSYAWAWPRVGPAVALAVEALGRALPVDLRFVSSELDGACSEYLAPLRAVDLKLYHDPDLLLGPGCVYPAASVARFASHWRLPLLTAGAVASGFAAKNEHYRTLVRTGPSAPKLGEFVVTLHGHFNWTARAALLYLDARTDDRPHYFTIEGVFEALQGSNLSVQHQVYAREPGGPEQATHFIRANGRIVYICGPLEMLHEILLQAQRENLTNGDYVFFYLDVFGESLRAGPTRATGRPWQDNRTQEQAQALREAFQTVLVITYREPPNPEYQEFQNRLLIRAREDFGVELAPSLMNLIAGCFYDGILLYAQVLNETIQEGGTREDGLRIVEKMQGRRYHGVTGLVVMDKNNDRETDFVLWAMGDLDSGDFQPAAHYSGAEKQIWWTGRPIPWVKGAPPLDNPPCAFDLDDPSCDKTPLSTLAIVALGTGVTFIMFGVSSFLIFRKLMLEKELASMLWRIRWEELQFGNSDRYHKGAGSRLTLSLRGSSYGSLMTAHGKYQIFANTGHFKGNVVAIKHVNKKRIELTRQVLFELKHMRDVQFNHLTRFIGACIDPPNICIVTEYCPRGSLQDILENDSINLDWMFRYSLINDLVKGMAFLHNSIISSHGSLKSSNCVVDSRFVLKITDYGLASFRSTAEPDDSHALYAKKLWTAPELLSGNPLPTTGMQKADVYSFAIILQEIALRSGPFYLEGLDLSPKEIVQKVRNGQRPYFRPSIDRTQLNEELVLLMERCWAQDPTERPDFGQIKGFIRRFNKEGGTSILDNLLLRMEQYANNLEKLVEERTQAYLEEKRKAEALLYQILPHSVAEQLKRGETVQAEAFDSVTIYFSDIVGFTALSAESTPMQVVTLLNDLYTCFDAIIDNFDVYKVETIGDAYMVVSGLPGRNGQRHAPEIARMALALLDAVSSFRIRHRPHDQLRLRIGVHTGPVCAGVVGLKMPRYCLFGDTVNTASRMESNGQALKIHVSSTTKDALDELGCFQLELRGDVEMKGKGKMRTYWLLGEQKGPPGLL

in vivo = conditions: male, rat
Procedure: Studies were conducted in normal rats to evaluate the pharmacokinetics (PK) profile of CNP22 and certain CNP variants and the time courses of plasma cGMP concentration after single intravenous (i.v.) or subcutaneous (s.c.) administration of the CNP peptides. Plasma CNP immunoreactivity was determined by using a competitive radioimmunoassay (RIA) with an anti-CNP rabbit polyclonal antibody. Plasma cGMP concentration was determined by RIA using a commercially available kit (YAMASA cyclic GMP Assay kit, YAMASA Corporation).
Normal male rats, 7-8 weeks of age, were used. Recombinant wild-type CNP22, CNP37 and PEO24-CNP27(Arg4) (i.e., PEO24-GANRR-CNP22(K4R)) were evaluated. A dosage of 20 nmol/kg of each CNP peptide as a solution in 5% mannitol was intravenously injected once into the tail, or a dosage of 50 nmol/kg of each CNP peptide as a solution in 0.03 mol/L acetic acid buffer solution, pH 4.0, containing 1% (w/v) benzyl alcohol and 10% (w/v) sucrose, was subcutaneously injected once into the back.
Plasma CNP immunoreactivity was determined by the competitive RIA using anti-CNP rabbit polyclonal antibody. Standard and QC samples were prepared. Fifty uL of the standard, QC and assay samples were added, respectively, to test tubes containing 50 uL of RIA buffer. Diluted anti-CNP rabbit polyclonal antibody (100 uL) was added to the tubes. All tubes were kept at 4° C. overnight. ^125I-[Tyr^0]-CNP22 solution (100 uL) and rabbit IgG solution (100 uL) were added and left at approximately 4° C. overnight. One milliliter of anti-rabbit IgG goat serum containing 10% polyethylene glycol was added, vortexed and left at approximately 4° C. for at least 1 hour, and then the insoluble fraction was precipitated by centrifugation. After aspiration of the supernatant, the amount of radiation (gamma line) in the sediment was measured by a gamma-counter. Each sample was measured in duplicate, and the mean was adopted as the value determined.
Plasma CNP immunoreactivity was employed for pharmacokinetics (PK) analysis. PK analysis was performed using WINNONLIN® Professional (Pharsight Corporation). The PK profiles of CNP22, CNP37 and PEO24-CNP27(Arg4) after i.v. administration were calculated using PK parameters such as concentration at 0 hour (C0: extrapolation, pmol/mL), total body clearance (CLtot: mL/min/kg), distribution volume at steady state (Vdss: mL/kg), area under the plasma concentration-time curve (AUC: pmol·min/mL), mean residence time (MRT: min), and half-life (T1/2: min). The PK profiles of the CNP peptides after s.c. administration were calculated using PK parameters such as maximum plasma concentration (Cmax: pmol/mL), time to reach Cmax (Tmax: min), area under the plasma concentration-time curve (AUC: pmol·min/mL), mean residence time (MRT: min), and half-life (T1/2: min).

Recombinant human NEP = Recombinant human NEP (Homo sapiens, UniProt P08473); test: in vitro
Chain of Recombinant human NEP (P08473 whole entry): as the sequence (P08473 whole entry) above
How it was run: as §1

| Compound | half-life at 100 uM [1] | cGMP response relative to 1 uM CNP22 (%) at 0.01 µM (NPR-B) | cGMP response relative to 1 uM CNP22 (%) at 1 µM (NPR-B) | half-life (in vivo; iv, 20 nmol/kg) | bioavailability (in vivo; sc, 50 nmol/kg) | half-life (in vivo; sc, 50 nmol/kg) | resistance to NEP cleavage/degradation (in words) (Recombinant human NEP) | NPR-B stimulation activity / cGMP production compared with wtCNP22 (in words) (NPR-B) | resistance to NEP cleavage/degradation (in words) (Recombinant human NEP; in vitro NEP cleavage assay, assay period 160 minutes) |
| --- | --- | --- | --- | --- | --- | --- | --- | --- | --- |
| CC[C@H](C)[C@@H]1NC(=O)[C@H](CCCNC(=N)N)NC(=O)[C@H](CC(=O)O)NC(=O)[C@H](CC(C)C)NC(=O)[C@H](CCCCN)NC(=O)[C@H](CC(C)C)NC(=O)CNC(=O)[C@H](Cc2ccccc2)NC(=O)[C@@H](NC(=O)CNC(=O)[C@H](CCCNC(=N)N)NC(=O)[C@H](CO)NC(=O)[C@H](CC(C)C)NC(=O)CNC(=O)[C@H](CCCNC(=N)N)NC(=O)[C@H](CCCNC(=N)N)NC(=O)[C@H](CC(N)=O)NC(=O)[C@H](C)NC(=O)CNC(=O)CCOCCOCCOCCOCCOCCOCCOCCOCCOCCOCCOCCOCCOCCOCCOCCOCCOCCOCCOCCOCCOCCOCCOCCOC)CSSC[C@@H](C(=O)O)NC(=O)CNC(=O)[C@H](CC(C)C)NC(=O)CNC(=O)[C@H](CO)NC(=O)[C@H](CCSC)NC(=O)[C@H](CO)NC(=O)CNC1=O [PEO24-GANRR-CNP22, K4R (CNP27)] ({MeO(CH2CH2O)23CH2CH2CO}-GANRRGLSRGCFGLKLDRIGSMSGLGC-OH; disulfide 11-27) | > 160 min | 28 ± 9% | 82 ± 18% | 22.3 min | 60% | 78.1 min | – | – | – |
| CC[C@H](C)[C@@H]1NC(=O)[C@H](CCCNC(=N)N)NC(=O)[C@H](CC(=O)O)NC(=O)[C@H](CC(C)C)NC(=O)[C@H](CCCCN)NC(=O)[C@H](CC(C)C)NC(=O)CNC(=O)[C@H](Cc2ccccc2)NC(=O)[C@@H](NC(=O)CNC(=O)[C@H](CCCNC(=N)N)NC(=O)[C@H](CO)NC(=O)[C@H](CC(C)C)NC(=O)CNC(=O)[C@H](CCCNC(=N)N)NC(=O)CCOCCOCCOCCOCCOCCOCCOCCOCCOCCOCCOCCOC)CSSC[C@@H](C(=O)O)NC(=O)CNC(=O)[C@H](CC(C)C)NC(=O)CNC(=O)[C@H](CO)NC(=O)[C@H](CCSC)NC(=O)[C@H](CO)NC(=O)CNC1=O [PEO12-R-CNP22, K4R] ({CH3O(CH2CH2O)11CH2CH2CO}-RGLSRGCFGLKLDRIGSMSGLGC-OH; disulfide 7-23) | ≥ 160 min | 23 ± 2% | 93 ± 19% | – | – | – | much more resistant to NEP degradation than CNP22 | – | – |
| CC[C@H](C)[C@@H]1NC(=O)[C@H](CCCNC(=N)N)NC(=O)[C@H](CC(=O)O)NC(=O)[C@H](CC(C)C)NC(=O)[C@H](CCCCN)NC(=O)[C@H](CC(C)C)NC(=O)CNC(=O)[C@H](Cc2ccccc2)NC(=O)[C@@H](NC(=O)CNC(=O)[C@H](CCCNC(=N)N)NC(=O)[C@H](CO)NC(=O)[C@H](CC(C)C)NC(=O)CNC(=O)[C@H](CCCNC(=N)N)NC(=O)[C@H](CCCNC(=N)N)NC(=O)[C@H](CC(N)=O)NC(=O)[C@H](C)NC(=O)CNC(=O)CCOCCOCCOCCOCCOCCOCCOCCOCCOCCOCCOCCOC)CSSC[C@@H](C(=O)O)NC(=O)CNC(=O)[C@H](CC(C)C)NC(=O)CNC(=O)[C@H](CO)NC(=O)[C@H](CCSC)NC(=O)[C@H](CO)NC(=O)CNC1=O [PEO12-GANRR-CNP22, K4R (CNP27)] ({CH3O(CH2CH2O)11CH2CH2CO}-GANRRGLSRGCFGLKLDRIGSMSGLGC-OH; disulfide 11-27; C-terminus assumed) | > 160 min | 40 ± 2% | 99 ± 13% | – | – | – | much more resistant to NEP degradation than CNP22 | substantially the same NPR-B stimulation activity as CNP22 | – |
| CC[C@H](C)[C@@H]1NC(=O)[C@H](CCCNC(=N)N)NC(=O)[C@H](CC(=O)O)NC(=O)[C@H](CC(C)C)NC(=O)[C@H](CCCCN)NC(=O)[C@H](CC(C)C)NC(=O)CNC(=O)[C@H](Cc2ccccc2)NC(=O)[C@@H](NC(=O)CNC(=O)[C@H](CCCCN)NC(=O)[C@H](CO)NC(=O)[C@H](CC(C)C)NC(=O)CNC(=O)CCOCCOCCOCCOCCOCCOCCOCCOCCOCCOCCOCCOCCOCCOCCOCCOCCOCCOCCOCCOCCOCCOCCOCCOC)CSSC[C@@H](C(=O)O)NC(=O)CNC(=O)[C@H](CC(C)C)NC(=O)CNC(=O)[C@H](CO)NC(=O)[C@H](CCSC)NC(=O)[C@H](CO)NC(=O)CNC1=O [PEO24-CNP22] | > 160 min | 8 ± 5% | 46 ± 10% | – | – | – | – | – | resistant to NEP degradation over the assay period of 160 minutes |
| CC[C@H](C)[C@@H]1NC(=O)[C@H](CCCNC(=N)N)NC(=O)[C@H](CC(=O)O)NC(=O)[C@H](CC(C)C)NC(=O)[C@H](CCCCN)NC(=O)[C@H](CC(C)C)NC(=O)CNC(=O)[C@H](Cc2ccccc2)NC(=O)[C@@H](NC(=O)CNC(=O)[C@H](CCCNC(=N)N)NC(=O)[C@H](CO)NC(=O)[C@H](CC(C)C)NC(=O)CNC(=O)[C@H](CCC(N)=O)NC(=O)[C@H](CCC(N)=O)NC(=O)[C@H](CC(N)=O)NC(=O)[C@H](C)NC(=O)CNC(=O)[C@@H](NC(=O)[C@H](Cc2ccc(O)cc2)NC(=O)[C@@H](NC(=O)[C@H](CCC(N)=O)NC(=O)[C@@H]2CCCN2C(=O)[C@H](CCC(=O)O)NC(=O)[C@H](CCCNC(=N)N)NC(=O)[C@@H]2CCCN2C(=O)[C@H](CCC(N)=O)NC(=O)CN)C(C)C)[C@@H](C)O)CSSC[C@@H](C(=O)O)NC(=O)CNC(=O)[C@H](CC(C)C)NC(=O)CNC(=O)[C@H](CO)NC(=O)[C@H](CCSC)NC(=O)[C@H](CO)NC(=O)CNC1=O [CK] (H-GQPREPQVYTGANQQGLSRGCFGLKLDRIGSMSGLGC-OH; disulfide 21-37 (inferred); N-terminus and C-terminus assumed) | ≥ 160 min | 2% | 32% | – | – | – | most resistant to NEP degradation | – | – |
